The record followed here is patent US5952326A, “Tetralin and chroman derivatives useful in the treatment of asthma, arthritis and related diseases” (Pfizer Inc., priority 1997, dated 1999).

For this experiment, the system named is PAF (platelet activating factor) lethality. In words: PAF lethality assay procedure. Format: in vivo, mice (CD1 males). The following applies: Mus musculus, po, positive control, mice treated orally 45 minutes before i.v. PAF injection, approximate. As for the experimental part: To evaluate the compounds of the formula (I) in vivo, they are tested by the so-called PAF lethality assay procedure:
Mice: CD1 males, all approximately the same weight (approximately 26 grams), 12 per group.
Vehicle for oral drug dosing: EES (5% ethanol, 5% emulphor, 90% saline). Stored at room temperature.
Drugs: For routine screening at 50 mg/kg, 20 mg drug is dissolved in 4 ml EES, using sonication in a sonicator bath or grinding in a Ten Broeck grinder to dissolve drug if necessary. If solubility is still a problem, the drug is used as a suspension.
Vehicle for i.v. Injection: Saline with 2.5 mg/ml Bovine Serum Albumin (BSA, Sigma #A4378) and 0.05 mg/ml Propranolol (Sigma #P0884). Prepared fresh daily and kept at room temperature.
Platelet Activating Factor (PAF): A 10 microm stock solution is prepared by dissolving 1 mg PAF (Calbiochem #429460) in 0.18 ml ethanol. This is stored at -20° C. and is diluted in vehicle (see above) the day of use. The concentration of PAF used is calibrated so that when injected at 0.1 ml/10 grams body weight, it will kill approximately 80% of untreated controls. This is usually about […] (a 1 to 2034 dilution from stock). […]
45 minutes before PAF injection, mice are treated orally with drug using 0.1 ml/10 grams body weight. […] Results are expressed as percent mortality as compared to controls. […]

By ED50 is commonly meant the dose at which the effect has come halfway, by size or by number of responders. The low end stands for an effect at a small dose, the high end for a need for a large dose. Take `O=C1CCN(c2ccccc2)N1` [Phenidone]: the ED50 is approximately 25 mg/kg.
